From patent publication US12209102B2, “Heterocyclic compounds and uses thereof” (Kumquat Biosciences Inc., priority 2022, dated 2025) come the findings set out here.

The test system of experiment [1] is SW620 cells. As to the kind of experiment: Ras cellular assay, growth of cells with K-Ras G12V mutation (CellTiter-Glo). It is filed as cell-based. Conditions: Homo sapiens, SW-620; cell growth, Example 9, G12V mutation; read-out: IC50 against SW620 cells. The method, boiled down: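 IC50 values came from a four-parameter fit of CellTiter-Glo viability, read roughly 6 days after dosing with e.g. a 10-point threefold dilution series. G12V-mutant SW620 cells (e.g. 800 per well) had been plated the previous day in RPMI-1640/10% heat-inactivated FBS, on tissue culture-treated or ultra-low attachment plates.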

Experiment [2] has as its system GP2D cells. In words: Ras cellular assay, growth of cells with K-Ras G12D mutation (CellTiter-Glo). It is filed as cell-based. Conditions: cell growth, Example 9, G12D mutation, read-out: IC50 against GP2D cells.
In experiment [3] the target is T1, K-Ras G12D (Homo sapiens, UniProt P01116, G12D).
T1 construct: made in house; host or cells: E. coli BL21 (DE3)
T1 sequence (P01116 1-188 isoform P01116-2 G12D): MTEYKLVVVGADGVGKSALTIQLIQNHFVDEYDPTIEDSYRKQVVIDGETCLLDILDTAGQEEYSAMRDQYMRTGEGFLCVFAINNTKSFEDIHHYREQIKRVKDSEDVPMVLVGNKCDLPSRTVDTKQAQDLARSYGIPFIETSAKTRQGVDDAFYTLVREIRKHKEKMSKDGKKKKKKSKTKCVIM
As to the kind of experiment: HTRF resonance energy transfer assay, K-Ras G12D / SOS1 interaction. Particulars: HTRF assay of Example 5; read-out: IC50 against K-Ras G12D. The experiment is classed as biochemical. The method, boiled down:
(§1)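 Buffer about 5 mM HEPES pH 7.4 with ~150 mM NaCl, ~1 mM DTT, 0.05% BSA, 0.0025% (v/v) Igepal. Protein constructs used at molarity matching the IC50 range studied (e.g. ~500 nM). FRET between tagged K-Ras and hSOS1 measured after short incubation.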
On the technique in general: TR-FRET usually uses a lanthanide donor and a delayed reading to cut background.

The target of experiment [4] is T2, K-Ras WT (Homo sapiens, UniProt P01116).
T2 construct: made in house; host or cells: E. coli BL21 (DE3)
T2 sequence (P01116 1-188 isoform P01116-2): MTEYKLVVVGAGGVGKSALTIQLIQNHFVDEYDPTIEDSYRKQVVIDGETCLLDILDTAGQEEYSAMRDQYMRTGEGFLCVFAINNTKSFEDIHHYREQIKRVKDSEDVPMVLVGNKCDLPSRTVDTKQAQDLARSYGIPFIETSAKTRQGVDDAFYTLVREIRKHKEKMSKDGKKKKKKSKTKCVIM
As to the kind of experiment: HTRF resonance energy transfer assay, K-Ras WT / SOS1 interaction. It is filed as biochemical. Particulars: HTRF assay of Example 5; read-out: IC50 against K-Ras WT. The method in brief: as §1

Experiment [5] concerns the target T3, K-Ras G12S (Homo sapiens, UniProt P01116, G12S).
T3 construct: made in house; host or cells: E. coli BL21 (DE3)
As to the kind of experiment: HTRF resonance energy transfer assay, K-Ras G12S / SOS1 interaction. It is filed as biochemical. Conditions: HTRF assay of Example 5; read-out: IC50 against K-Ras G12S. The method in brief:
as §1

For experiment [6], the target named is T4, K-Ras G12V (Homo sapiens, UniProt P01116, G12V).
T4 construct: made in house; host or cells: E. coli BL21 (DE3)
T4 sequence (P01116 1-188 isoform P01116-2 G12V): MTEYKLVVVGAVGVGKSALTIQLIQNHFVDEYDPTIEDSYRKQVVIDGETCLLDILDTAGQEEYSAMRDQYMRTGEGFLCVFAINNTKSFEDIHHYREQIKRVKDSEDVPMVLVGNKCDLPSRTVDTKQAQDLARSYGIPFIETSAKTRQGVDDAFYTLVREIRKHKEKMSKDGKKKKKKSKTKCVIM
In words: HTRF resonance energy transfer assay, K-Ras G12V / SOS1 interaction. Particulars: HTRF assay of Example 5; read-out: IC50 against K-Ras G12V. The experiment is classed as biochemical. The method in brief:
as §1

Experiment [7] concerns A549 cells. In words: Ras cellular assay, growth of cells with K-Ras G12S mutation (CellTiter-Glo). The experiment is classed as cell-based. Particulars: Homo sapiens, cell growth, Example 9, G12S mutation, read-out: IC50 against A549 cells. The method, boiled down: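 Growth inhibition IC50 values come from four-parameter fits of CellTiter-Glo luminescence, read about 6 days after compound addition. G12S-mutant A549 cells (e.g. 800/well, RPMI-1640 + 10% heat-inactivated FBS) were plated in tissue-culture-treated or ultra-low-attachment 384-well format. Dosing began the following day with serial dilutions, e.g. 10 points, 3-fold.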
For orientation: ATP-based viability assays read luminescence as a measure of living cells.

Some results are limits rather than exact numbers.

T3 sequence (P01116 1-188 isoform P01116-2 G12S): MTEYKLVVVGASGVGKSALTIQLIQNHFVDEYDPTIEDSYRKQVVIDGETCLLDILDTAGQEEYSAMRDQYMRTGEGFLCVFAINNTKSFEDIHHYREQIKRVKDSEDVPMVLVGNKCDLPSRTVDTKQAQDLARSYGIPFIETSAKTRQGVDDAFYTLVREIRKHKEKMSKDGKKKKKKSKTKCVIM

Consider `CS(=O)(=O)N1CCC(N2CCOc3c(Cl)c(-c4ccc(F)c5sc(N)c(C#N)c45)c(F)c4nc(OC[C@@]56CCCN5C[C@H](F)C6)nc2c34)C1` (stereo partly drawn) [Compound 966, 2-amino-4-(8-chloro-10-fluoro-2-(((2R,7aS)-2-fluorotetrahydro-1H-pyrrolizin-7a(5H)-yl)methoxy)-4-(1-(methylsulfonyl)pyrrolidin-3-yl)-5,6-dihydro-4H-[1,4]oxazepino[5,6,7-de]quinazolin-9-yl)-7-fluorobenzo[b]thiophene-3-carbonitrile], for which the 50% inhibitory concentration (IC50) (commonly the concentration that inhibits the measured activity by half) in experiment [1] is below 5000 nM; in experiment [2], below 500 nM; in experiment [3], below 100 nM; in experiment [4], below 100 nM; in experiment [5] it was below 100 nM; in experiment [6], below 100 nM. Also, the 50% inhibitory concentration (IC50) in experiment [7] was below 5000 nM.
Take `N#Cc1c(N)sc2c(F)ccc(-c3c(Cl)c4c5c(nc(OC[C@@]67CCCN6C[C@H](F)C7)nc5c3F)N(C3CCNC3)CCO4)c12` (stereo partly drawn) [Compound 969, 2-amino-4-(8-chloro-10-fluoro-2-(((2R,7aS)-2-fluorotetrahydro-1H-pyrrolizin-7a(5H)-yl)methoxy)-4-(pyrrolidin-3-yl)-5,6-dihydro-4H-[1,4]oxazepino[5,6,7-de]quinazolin-9-yl)-7-fluorobenzo[b]thiophene-3-carbonitrile]: the IC50 is below 5000 nM in experiment [1]; below 500 nM in experiment [2]; below 100 nM in experiment [3]; below 100 nM in experiment [4]; below 100 nM in experiment [5]; below 100 nM in experiment [6]. Also, the IC50 in experiment [7] is below 5000 nM.
With `N#Cc1c(N)sc2c(F)ccc(-c3c(Cl)c4c5c(nc(OC[C@@]67CCCN6C[C@H](F)C7)nc5c3F)N(C35COC(CF)(C3)C5)CCO4)c12` [Compound 972, 2-amino-4-(8-chloro-10-fluoro-4-(1-(fluoromethyl)-2-oxabicyclo[2.1.1]hexan-4-yl)-2-(((2R,7aS)-2-fluorotetrahydro-1H-pyrrolizin-7a(5H)-yl)methoxy)-5,6-dihydro-4H-[1,4]oxazepino[5,6,7-de]quinazolin-9-yl)-7-fluorobenzo[b]thiophene-3-carbonitrile], the IC50 in experiment [1] is below 5000 nM; in experiment [2], below 500 nM; in experiment [3] it was below 100 nM; in experiment [4] it was below 100 nM; in experiment [5] it was below 100 nM; in experiment [6], below 100 nM. In addition, the half-maximal inhibitory concentration (IC50) in experiment [7] was below 5000 nM.
`N#Cc1c(N)sc2c(F)ccc(-c3c(Cl)c4c5c(nc(OC[C@@]67CCCN6C[C@H](F)C7)nc5c3F)N(C3CCN(C(=O)[C@@H]5CCCO5)C3)CCO4)c12` (stereo partly drawn) [Compound 984, 2-amino-4-(8-chloro-10-fluoro-2-(((2R,7aS)-2-fluorotetrahydro-1H-pyrrolizin-7a(5H)-yl)methoxy)-4-(1-((S)-tetrahydrofuran-2-carbonyl)pyrrolidin-3-yl)-5,6-dihydro-4H-[1,4]oxazepino[5,6,7-de]quinazolin-9-yl)-7-fluorobenzo[b]thiophene-3-carbonitrile]: the IC50 is below 5000 nM in experiment [1]; below 500 nM in experiment [2]; below 100 nM in experiment [3]; below 100 nM in experiment [4]; below 100 nM in experiment [5]; below 100 nM in experiment [6]. Further, the IC50 in experiment [7] was below 5000 nM.
`CN(C)CCN1CCOc2c(Cl)c(-c3ccc(F)c4sc(N)c(C#N)c34)c(F)c3nc(OC[C@@]45CCCN4C[C@H](F)C5)nc1c23` [Compound 994, 2-amino-4-(8-chloro-4-(2-(dimethylamino)ethyl)-10-fluoro-2-(((2R,7aS)-2-fluorotetrahydro-1H-pyrrolizin-7a(5H)-yl)methoxy)-5,6-dihydro-4H-[1,4]oxazepino[5,6,7-de]quinazolin-9-yl)-7-fluorobenzo[b]thiophene-3-carbonitrile]: the IC50 in experiment [1] was below 5000 nM; in experiment [2], below 500 nM; in experiment [3], below 100 nM; in experiment [4] it was below 100 nM; in experiment [5], below 100 nM; in experiment [6], below 100 nM. In addition, in experiment [7], the IC50 is below 5000 nM.
On to `N#Cc1c(N)sc2c(F)ccc(-c3c(Cl)c4c5c(nc(OC[C@@]67CCCN6C[C@H](F)C7)nc5c3F)N(C3CCCN(C(=O)C(F)F)C3)CCO4)c12` (stereo partly drawn) [Compound 998, 2-amino-4-(8-chloro-4-(1-(2,2-difluoroacetyl)piperidin-3-yl)-10-fluoro-2-(((2R,7aS)-2-fluorotetrahydro-1H-pyrrolizin-7a(5H)-yl)methoxy)-5,6-dihydro-4H-[1,4]oxazepino[5,6,7-de]quinazolin-9-yl)-7-fluorobenzo[b]thiophene-3-carbonitrile], for which the IC50 is below 5000 nM in experiment [1]; below 500 nM in experiment [2]; below 100 nM in experiment [3]; below 100 nM in experiment [4]; below 100 nM in experiment [5]; below 100 nM in experiment [6]. In addition, in experiment [7], the IC50 is below 5000 nM.
As to `CC(C(F)F)N1CCOc2c(Cl)c(-c3ccc(F)c4sc(N)c(C#N)c34)c(F)c3nc(OC[C@@]45CCCN4C[C@H](F)C5)nc1c23` (stereo partly drawn) [Compound 1000, 2-amino-4-(8-chloro-4-(1,1-difluoropropan-2-yl)-10-fluoro-2-(((2R,7aS)-2-fluorotetrahydro-1H-pyrrolizin-7a(5H)-yl)methoxy)-5,6-dihydro-4H-[1,4]oxazepino[5,6,7-de]quinazolin-9-yl)-7-fluorobenzo[b]thiophene-3-carbonitrile], the 50% inhibitory concentration (IC50) in experiment [1] was below 5000 nM; in experiment [2], below 500 nM; in experiment [3] it was below 100 nM; in experiment [4] it was below 100 nM; in experiment [5], below 100 nM; in experiment [6], below 100 nM. Besides, the IC50 in experiment [7] was below 5000 nM.
Turning to `N#Cc1c(N)sc2c(F)ccc(-c3c(Cl)c4c5c(nc(OC[C@@]67CCCN6C[C@H](F)C7)nc5c3F)N(CC(F)F)CC(CO)O4)c12` (stereo partly drawn) [Compound 1002, 2-amino-4-(8-chloro-4-(2,2-difluoroethyl)-10-fluoro-2-(((2R,7aS)-2-fluorotetrahydro-1H-pyrrolizin-7a(5H)-yl)methoxy)-6-(hydroxymethyl)-5,6-dihydro-4H-[1,4]oxazepino[5,6,7-de]quinazolin-9-yl)-7-fluorobenzo[b]thiophene-3-carbonitrile], the IC50 in experiment [1] is below 5000 nM; in experiment [2] it was below 500 nM; in experiment [3], below 100 nM; in experiment [4], below 100 nM; in experiment [5], below 100 nM; in experiment [6] it was below 100 nM. Besides, the concentration for half-maximal inhibition (IC50) in experiment [7] is below 5000 nM.
For the molecule `CN(C)CCCN1CCOc2c(Cl)c(-c3ccc(F)c4sc(N)c(C#N)c34)c(F)c3nc(OC[C@@]45CCCN4C[C@H](F)C5)nc1c23` [Compound 1020, 2-amino-4-(8-chloro-4-(3-(dimethylamino)propyl)-10-fluoro-2-(((2R,7aS)-2-fluorotetrahydro-1H-pyrrolizin-7a(5H)-yl)methoxy)-5,6-dihydro-4H-[1,4]oxazepino[5,6,7-de]quinazolin-9-yl)-7-fluorobenzo[b]thiophene-3-carbonitrile], the IC50 is below 5000 nM in experiment [1]; below 500 nM in experiment [2]; below 100 nM in experiment [3]; below 100 nM in experiment [4]; below 100 nM in experiment [5]; below 100 nM in experiment [6]. The concentration for half-maximal inhibition (IC50) in experiment [7] is below 5000 nM.
